Laboratory results from patent publication US6989263B1, “Method for identifying and using compounds that inactivate HIV-1 and other retroviruses by attacking highly conserved zinc fingers in the viral nucleocapsid protein” (The United States of America as represented by the …, priority 1994, dated 2006).
Entries after “also recorded” stand apart in the source; their conditions may differ.

Molecular target: T1, p7NC (Human immunodeficiency virus type 1 group M subtype B, UniProt P05888)
T1 construct: The NC protein of HIV-1 (MN) p7NC was expressed in E. coli; made in house; host or cells: E. coli (vector pMAL-c)
Assay: HPLC analysis of reaction products of purified p7NC with reagent
Assay type: biochemical, HIV-1
Set-up: key to Protein (HPLC): reaction products / Protein (HPLC): reaction rate: formation of non-native, intra-protein disulfide links (designated “Disulfides”); some of the reagents form adducts with the cysteine residues as well (designated “Adducts”); slow: “Slow” reactions are those in which greater than 10% of the p7NC protein remained in its native form after the 10 minute incubation with reagent; very slow: “Very slow” reactions are those in which greater than 50% of the p7NC protein remained in its native form after the 10 minute incubation with reagent; fast: “Fast” reactions result in complete transformation of the p7NC protein to non-native conformations during the 10 minute incubation period
Conditions: not given
Text: Highly purified retroviral NC proteins can be produced by expression from vectors generated through recombinant DNA technology. These proteins when reconstituted with zinc (see, Summers, et al., Protein Science 1:563–567 (1992) for methods), provide the source of the NC proteins containing the zinc fingers that are the targets for attack by the compounds of this invention. When the zinc fingers in NC proteins react with identified compounds, the reaction produces a covalent change in the NC protein, and the modified protein can be separated from the unreacted protein by, for example, reversed phase HPLC.
Samples of p7NC and apo-p7 were reacted with varying amounts of cupric chloride and resulting products separated by HPLC. The reactions were carried out using 44.3 μM protein (p7NC or apo-p7) in 0.1 M Tris-HCl, pH 7.4, for 6 minutes at room temperature with varying concentrations of CuCl2 to achieve the indicated ratios of reactants, in a final volume of 0.7 ml. Chromatography was carried out on the resulting products at pH 2 (0.05% trifluoroacetic acid) on μBondapak™ C-18 (3.9×300 mm) at 1.0 ml/minute using an acetonitrile gradient (0–17%, 20 ml; 17–20%, 60 ml; 20–60%, 10 ml). Elution positions of unreacted protein (p7NC or apo-p7) are indicated as apo-p7.
A two-fold excess of NOBA was reacted with p7NC, and the products were separated by HPLC (FIG. 10) as described above for Cu^+2 and p7NC. Elution positions for the reactants (NOBA and unreacted p7NC) and products, reacted p7NC, NOBA, HABA and AzoxyBA are indicated and an elution profile is included in FIG. 10. NOBA and AzoxyBA were supplied by Octamer, Inc. (Mill Valley, Calif.) and used as HPLC standards.
The disulfide reagent of choice (each available from the Aldrich Chemical Company (Milwaukee, Wis.)) was incubated for 10 minutes with purified p7NC protein (63 μM) at a ratio of 6 molecules of reagent to 1 molecule of NC protein (there are 6 cysteine thiols per NC protein). The formation of non-native protein conformations was monitored by HPLC as described above. […] Generally, the inactivation proceeds by formation of non-native, intra-protein disulfide links (designated “Disulfides”), but some of the reagents form adducts with the cysteine residues as well (designated “Adducts”). “Slow” reactions are those in which greater than 10% of the p7NC protein remained in its native form after the 10 minute incubation with reagent. “Very slow” reactions are those in which greater than 50% of the p7NC protein remained in its native form after the 10 minute incubation with reagent. “Fast” reactions result in complete transformation of the p7NC protein to non-native conformations during the 10 minute incubation period.

SMILES | reaction with purified p7NC (HPLC), in words
NC(=O)SCC(=O)NNc1ccccc1 [2-(Carbamoylthio)-Acetic Acid 2-Phenylhydrazide] | caused intra-chain disulfide formation
CCN1C(=O)C=CC1=O [NEM, N-ethylmaleimide] | form adducts with the p7NC protein

Same assay, conditions: 63 μM p7NC, 6 reagent : 1 protein, 10 minutes

SMILES | Protein (HPLC): reaction products | Protein (HPLC): reaction rate
O[C@@H]1CSSC[C@H]1O (relative stereo) [Trans-1,2-Dithiane-4,5-Diol] | Disulfides | (slow) (“Slow” reactions are those in which greater than 10% of the p7NC protein remained in its native form after the 10 minute incubation with reagent)
Nc1c(SSc2ccc3ccccc3c2N)ccc2ccccc12 [2,2-Dithiobis(1-Naphtylamine)] | Disulfides; also recorded: Adducts | (fast)
COc1cccc(SSc2cccc(OC)c2OC)c1OC [2,3-Dimethoxyphenyl Disulfide] | Adducts | –
Clc1cc(Cl)c(SSc2cc(Cl)c(Cl)cc2Cl)cc1Cl [2,4,5-Trichlorophenyl Disulfide] | Disulfides | –
Cc1ccc(SSc2ccc([N+](=O)[O-])cc2[N+](=O)[O-])cc1 [2,4-Dinitrophenyl p-Tolyl Disulfide] | Disulfides; also recorded: Adducts | (fast)
CCN(CC)CCSSCCN(CC)CC [2-(Diethylamino)ethyl Disulfide] | Disulfides | –
CCOC(=O)Nc1ccccc1SSc1ccccc1NC(=O)OCC [2-(Ethoxycarboxamido)phenyl Disulfide] | Disulfides; also recorded: Adducts | –
CC(=O)Nc1ccccc1SSc1ccccc1NC(C)=O [2-Acetamidophenyl Disulfide] | Disulfides; also recorded: (Adducts) | –
Nc1cc(Cl)ccc1SSc1ccc(Cl)cc1N [2-Amino-4-Chlorophenyl Disulfide] | Disulfides; also recorded: Adducts | (fast)
Nc1ccccc1SSc1ccccc1N [2-Aminophenyl Disulfide] | Disulfides; also recorded: Adducts | (slow) (“Slow” reactions are those in which greater than 10% of the p7NC protein remained in its native form after the 10 minute incubation with reagent)
O=[N+]([O-])c1ccc(Cl)c(SSc2cc([N+](=O)[O-])ccc2Cl)c1 [2-Chloro-5-Nitrophenyl Disulfide] | Disulfides | –
c1ccc2nc(SSc3ccc4ccccc4n3)ccc2c1 [2-Quinolyl Disulfide] | Disulfides; also recorded: Adducts | (slow) (“Slow” reactions are those in which greater than 10% of the p7NC protein remained in its native form after the 10 minute incubation with reagent)
O=C(O)CCSSCCC(=O)O [3,3-Dithiodipropionic Acid] | Disulfides | (slow) (“Slow” reactions are those in which greater than 10% of the p7NC protein remained in its native form after the 10 minute incubation with reagent)
O=[N+]([O-])c1cccc(SSc2cccc([N+](=O)[O-])c2)c1 [3-Nitrophenyl Disulfide] | Disulfides | –
CC(=O)Nc1ccc(SSc2ccc(NC(C)=O)cc2)cc1 [4-Acetamidophenyl Disulfide] | Disulfides | (slow) (“Slow” reactions are those in which greater than 10% of the p7NC protein remained in its native form after the 10 minute incubation with reagent)
O=[N+]([O-])c1cc(SSc2ccc(Cl)c([N+](=O)[O-])c2)ccc1Cl [4-Chloro-3-Nitrophenyl Disulfide] | Disulfides; also recorded: Adducts | –
Cc1cc(SSc2cc(C)c3ccccc3n2)nc2ccccc12 [4-Methyl-2-Quinolyl Disulfide] | Disulfides; also recorded: Adducts | (slow) (“Slow” reactions are those in which greater than 10% of the p7NC protein remained in its native form after the 10 minute incubation with reagent)
CS(=O)(=O)c1ccc(SSc2ccc(S(C)(=O)=O)cc2[N+](=O)[O-])c([N+](=O)[O-])c1 [4-Methylsulfonyl-2-Nitrophenyl Disulfide] | Disulfides | –
O=[N+]([O-])c1ccc(SSc2ccc([N+](=O)[O-])cc2)cc1 [4-Nitrophenyl Disulfide] | Disulfides; also recorded: Adducts | (slow) (“Slow” reactions are those in which greater than 10% of the p7NC protein remained in its native form after the 10 minute incubation with reagent)
Cc1ccc(SSc2ccc([N+](=O)[O-])cc2)cc1 [4-Nitrophenyl p-Tolyl Disulfide] | Disulfides; also recorded: Adducts | (slow) (“Slow” reactions are those in which greater than 10% of the p7NC protein remained in its native form after the 10 minute incubation with reagent)
O=C(O)c1cc(SSc2ccc([N+](=O)[O-])c(C(=O)O)c2)ccc1[N+](=O)[O-] [5,5-Dithiobis(2-Nitrobenzoic Acid)] | Disulfides; also recorded: Adducts | (fast)
c1cc(SSc2ccncc2)ccn1 [Aldrithiol-4] | Disulfides | –
CSSC(=O)c1ccccc1 [Benzoylmethyl Disulfide] | Adducts | –
CC(C)OC(=S)SSC(=S)OC(C)C [Isopropylxanthic Disulfide] | Disulfides | –
CCOC(=S)SSC(=S)OCC [O,O-Diethyl Dithiobis-(Thioformate)] | Disulfides; also recorded: Adducts | –
Cc1ccc([S+]([O-])[S+]([O-])c2ccc(C)cc2)cc1 (stereo not drawn) [p-Tolyl Disulfoxide] | Disulfides | (slow) (“Slow” reactions are those in which greater than 10% of the p7NC protein remained in its native form after the 10 minute incubation with reagent)

Same assay, conditions: after a 10 minute incubation

SMILES | p7NC species in non-native conformations
NC(=O)SCC(=O)NNc1ccccc1 [2-(Carbamoylthio)-Acetic Acid 2-Phenylhydrazide] | most
